Experimental data published in patent US7981911B2, “Pharmaceutical formulations” (Abbott Laboratories, priority 1999, dated 2011).

Experiment: oral bioavailability in dogs
Assay type: in vivo
Settings: both sexes, beagle, dog, plasma; unformulated solid in a capsule dosage form; 5 mg/kg oral dose in dogs
Method: Dogs (beagle dogs, mixed sexes, weighing 7-14 kg) were fasted overnight prior to dosing, but were permitted water ad libitum. Each dog received a 100 μg/kg subcutaneous dose of histamine approximately 30 minutes prior to dosing. Each dog received a single dosage form corresponding to a 5 mg/kg dose of the drug. The dose was followed by approximately 10 milliliters of water. Blood samples were obtained from each animal prior to dosing and 0.25, 0.5, 1.0, 1.5, 2, 3, 4, 6, 8, 10, and 12 hours after drug administration. The plasma was separated from the red cells by centrifugation and frozen (−30° C.) until analysis. Concentrations of parent drug were determined by reverse phase HPLC with low wavelength UV detection following liquid-liquid extraction of the plasma samples. The parent drug area under the curve was calculated by the trapezoidal method over the time course of the study. The absolute bioavailability of each test composition was calculated by comparing the area under the curve after oral dosing to that obtained from a single intravenous dose. Each capsule or capsule composition was evaluated in a group containing at least six dogs; the values reported are averages for each group of dogs.

## CC(C)c1nc(CN(C)C(=O)NC(C(=O)NC(Cc2ccccc2)CC(O)C(Cc2ccccc2)NC(=O)OCc2cncs2)C(C)C)cs1 (stereo not shown) [compound of formula I]
  bioavailability: < 2%
